Source: PMC12002339 (Proceedings of the National Academy of Sciences of the …, 2025)

T1: OmpF3–MlaA (Escherichia coli, UniProt P02931+P76506)
T1 sequence (P02931 23-362): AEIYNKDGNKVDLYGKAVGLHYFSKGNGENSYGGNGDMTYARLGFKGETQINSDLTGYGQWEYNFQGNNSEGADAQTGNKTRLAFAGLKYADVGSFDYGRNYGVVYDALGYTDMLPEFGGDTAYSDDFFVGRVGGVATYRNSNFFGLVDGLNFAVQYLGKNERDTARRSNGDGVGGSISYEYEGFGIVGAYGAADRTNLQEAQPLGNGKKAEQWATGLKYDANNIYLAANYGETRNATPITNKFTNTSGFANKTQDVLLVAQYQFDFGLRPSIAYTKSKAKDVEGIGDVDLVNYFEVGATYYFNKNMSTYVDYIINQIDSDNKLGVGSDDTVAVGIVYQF
T1 sequence (P76506 18-251): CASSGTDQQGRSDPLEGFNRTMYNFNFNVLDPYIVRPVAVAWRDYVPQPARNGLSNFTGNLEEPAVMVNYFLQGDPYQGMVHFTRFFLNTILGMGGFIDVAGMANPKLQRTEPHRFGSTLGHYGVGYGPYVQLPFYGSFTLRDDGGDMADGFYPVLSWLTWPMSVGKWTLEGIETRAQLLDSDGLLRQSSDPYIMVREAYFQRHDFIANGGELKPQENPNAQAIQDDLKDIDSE

T2: MlaC (Escherichia coli, UniProt P0ADV7)
T2 sequence (P0ADV7 22-211): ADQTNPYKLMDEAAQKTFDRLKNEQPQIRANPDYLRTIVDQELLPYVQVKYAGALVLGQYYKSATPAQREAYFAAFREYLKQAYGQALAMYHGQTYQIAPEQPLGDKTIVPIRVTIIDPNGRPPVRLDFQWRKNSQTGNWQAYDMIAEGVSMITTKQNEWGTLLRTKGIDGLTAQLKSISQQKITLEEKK

T3: OmpF3 (Escherichia coli, UniProt P02931)
T3 sequence (P02931 23-362): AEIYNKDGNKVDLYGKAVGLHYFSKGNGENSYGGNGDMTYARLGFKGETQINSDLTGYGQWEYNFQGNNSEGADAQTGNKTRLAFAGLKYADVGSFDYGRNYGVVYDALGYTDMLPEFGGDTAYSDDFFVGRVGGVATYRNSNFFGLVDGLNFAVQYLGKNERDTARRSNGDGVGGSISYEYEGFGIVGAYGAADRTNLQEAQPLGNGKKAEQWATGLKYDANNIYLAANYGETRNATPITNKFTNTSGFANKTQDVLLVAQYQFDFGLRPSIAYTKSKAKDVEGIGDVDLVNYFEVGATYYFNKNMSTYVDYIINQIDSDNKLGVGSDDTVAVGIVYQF


Assays:
OmpF3–MlaA = target: T1, OmpF3–MlaA; experiment: native MS of lipid-bound complex; format: binding; settings: incubated with synthetic lipid
MlaC = target: T2, MlaC; experiment: native MS of lipid-loaded MlaC after buffer exchange; format: binding; settings: 5 µM delipidated MlaC, 25 µM lipid, 5 min, 2xCMC C8E4, 200 mM ammonium acetate pH 7.0, no OmpF3–MlaA
OmpF3 = target: T3, OmpF3; experiment: native MS of lipid-bound complex; format: binding; settings: incubated with synthetic lipid; negative ion mode; MlaA-free trimer
native MS = target: the molecule itself; experiment: native MS

Molecule	degree of phospholipid binding (OmpF3–MlaA)	degree of phospholipid binding (OmpF3–MlaA; positive and negative ion mode)	other results
CCCCCCCC/C=C\CCCCCCCC(=O)O[C@H](COC(=O)CCCCCCCCCCCCCCC)COP(=O)(O)OCC(O)CO (stereo partly shown) [POPG]	Varying the degree of saturation (DSPG) or length (POPG) of the lipid chains	–	–
CCCCCCCC/C=C\CCCCCCCC(=O)OC[C@H](COP(=O)(O)OCC(O)CO)OC(=O)CCCCCCC/C=C\CCCCCCCC (stereo partly shown) [DOPG]	–	–	% MlaC loaded (MlaC): ~ 5%
CCCCCCCCCCCCCCCCCC(=O)OC[C@H](COP(=O)(O)OCC(O)CO)OC(=O)CCCCCCCCCCCCCCCCC (stereo partly shown) [DSPG]	Varying the degree of saturation (DSPG) or length (POPG) of the lipid chains	–	–
CCCCCCCC/C=C\CCCCCCCC(=O)OC[C@H](COP(=O)(O)OCCN)OC(=O)CCCCCCC/C=C\CCCCCCCC [DOPE]	–	DOPE binds with intermediate affinity, and its binding is strongly increased by MlaA	–
CCCCCCCC/C=C\CCCCCCCC(=O)OC[C@H](COP(=O)([O-])OCC[N+](C)(C)C)OC(=O)CCCCCCC/C=C\CCCCCCCC [DOPC]	–	DOPC binds with high affinity to OmpF3 and OmpF3–MlaA	degree of phospholipid binding (OmpF3): DOPC binds with high affinity to OmpF3 and OmpF3–MlaA
OmpF (natural protein) AEIYNKDGNKVDLYGKAVGLHYFSKGNGENSYGGNGDMTYARLGFKGETQINSDLTGYGQWEYNFQGNNSEGADAQTGNKTRLAFAGLKYADVGSFDYGRNYGVVYDALGYTDMLPEFGGDTAYSDDFFVGRVGGVATYRNSNFFGLVDGLNFAVQYLGKNERDTARRSNGDGVGGSISYEYEGFGIVGAYGAADRTNLQEAQPLGNGKKAEQWATGLKYDANNIYLAANYGETRNATPITNKFTNTSGFANKTQDVLLVAQYQFDFGLRPSIAYTKSKAKDVEGIGDVDLVNYFEVGATYYFNKNMSTYVDYIINQIDSDNKLGVGSDDTVAVGIVYQF	–	–	stoichiometry N (native MS): 3
